Measurements reported in patent US9232796B2, “Herbicidal compositions comprising 4-amino-3-chloro-5-fluoro-6-(4-chloro-2-fluoro-3-methoxyphenyl) pyridine-2-carboxylic acid or a derivative thereof and acetyl-CoA carboxylase (ACCase) inhibitors” (DOW AGROSCIENCES LLC, priority 2012, dated 2016).

Legend:
[1] = system: SCPJU; experiment: Example VI in-water applied ternary mixtures, greenhouse, transplanted paddy rice weeds; type: in vivo, Schoenoplectus juncoides (Roxb.) Palla
Experimental: Weed seeds or nutlets of the desired test plant species were planted in puddled soil (mud) prepared by mixing a shredded, non-sterilized mineral soil (50.5 percent silt, 25.5 percent clay, and 24 percent sand, with a pH of about 7.6 and an organic matter content of about 2.9 percent) and water at a 1:1 volumetric ratio. The prepared mud was dispensed in 365 mL aliquots into 16-ounce (oz.) non-perforated plastic pots with a surface area of 86.59 square centimeters (cm^2) leaving a headspace of 3 centimeters (cm) in each pot. Mud was allowed to dry overnight prior to planting or transplanting. Rice seeds were planted in Sun Gro MetroMix® 306 planting mixture, which typically has a pH of 6.0 to 6.8 and an organic matter content of about 30 percent, in plastic plug trays. Seedlings at the second or third leaf stage of growth were transplanted into 860 mL of mud contained in 32-oz. non-perforated plastic pots with a surface area of 86.59 cm^2 4 days prior to herbicide application. The paddy was created by filling the headspace of the pots with 2.5 to 3 cm of water. When required to ensure good germination and healthy plants, a fungicide treatment and/or other chemical or physical treatment was applied. The plants were grown for 4-22 days in a greenhouse with an approximate 14 hr. photoperiod which was maintained at about 29° C. during the day and 26° C. during the night. Nutrients were added as Osmocote® (19:6:12, N:P:K+minor nutrients) at 2 g per 16-oz. pot and 4 g per 32-oz. pot. Water was added on a regular basis to maintain the paddy flood, and supplemental lighting was provided with overhead metal halide 1000-Watt lamps as necessary. The plants were employed for testing when they reached the first through fourth true leaf stage.
Treatments consisted of the benzyl ester of 4-amino-3-chloro-5-fluoro-6-(4-chloro-2-fluoro-3-methoxy-phenyl)pyridine-2-carboxylic acid (Compound A), formulated as an SC (suspension concentrate), an ACCase inhibitor herbicide, and a third herbicidal component, each applied alone and in ternary combination. Forms of compound A were applied on an acid equivalent basis.
The ACCase inhibitor component was applied on an active ingredient basis and included cyhalofop-R-butyl formulated as Clincher® G and metamifop formulated as Metamifop EC. […]
Treatment requirements for each compound or herbicidal component were calculated based upon the rates being tested, the concentration of active ingredient or acid equivalent in the formulation, an application volume of 1 mL per component per pot, and an application area of 86.59 cm^2 per pot.
For formulated compounds, a measured amount was placed in an individual 100 or 200 mL glass vial and was dissolved in a volume of 1.25% (v/v) Agri-Dex® crop oil concentrate to obtain application solutions. […]

[2] = system: BRAPP; experiment: Example I postemergence foliar-applied, greenhouse, direct seeded rice weeds; type: in vivo, Brachiaria platyphylla (Griseb.) Nash
From the text: Seeds or nutlets of the desired test plant species were planted in a soil matrix prepared by mixing a loam or sandy loam soil (e.g., 28.6 percent silt, 18.8 percent clay, and 52.6 percent sand, with a pH of about 5.8 and an organic matter content of about 1.8 percent) and calcareous grit in an 80 to 20 ratio. The soil matrix was contained in plastic pots with a volume of 1 quart and a surface area of 83.6 square centimeters (cm^2). When required to ensure good germination and healthy plants, a fungicide treatment and/or other chemical or physical treatment was applied. The plants were grown for 8-22 days in a greenhouse with an approximate 14 hr. photoperiod which was maintained at about 29° C. during the day and 26° C. during the night. Nutrients (Peters Excel® 15-5-15 5-Ca 2-Mg and iron chelate) were applied in the irrigation solution as needed and water was added on a regular basis. Supplemental lighting was provided with overhead metal halide 1000-Watt lamps as necessary. The plants were employed for testing when they reached the first through fourth true leaf stage.
Treatments consisted of the acid or esters of 4-amino-3-chloro-5-fluoro-6-(4-chloro-2-fluoro-3-methoxy-phenyl)pyridine-2-carboxylic acid (Compound A), each formulated as an SC (suspension concentrate), and various herbicidal components alone and in combination.
Other herbicidal components were applied on an acid equivalent (ae) or active ingredient (ai) basis and included acetyl coA carboxylase (ACCase)-inhibiting herbicides (cyclohexanedione and aryloxyphenoxypropionate chemical classes) cyhalofop-butyl formulated as Clincher® SF (285 gr ai/L EC), diclofop-methyl formulated as Hoelon® 3EC, fenoxaprop-p-ethyl+isoxadifen-ethyl formulated as RiceStar® HT (0.58 lb./gal EC), fenoxaprop-p-ethyl+mefenpyr diethyl formulated as Puma® IEC, metamifop formulated as Metamifop EC, haloxyfop-methyl formulated as Gallant Super®, fluazifop-p-butyl formulated as Fusilade® DX, quizalofop-p-ethyl formulated as Assure® II, profoxydim formulated as Aura® 20EC, clethodim applied as Intensity®, sethoxydim formulated as Poast®, and tralkoxydim formulated as Achieve®.
Treatment requirements were calculated based upon the rates being tested, the concentration of active ingredient or acid equivalent in the formulation, and a 12 mL application volume at a rate of 187 L/ha.
For treatments comprised of formulated compounds, measured amounts of compounds were placed individually in 25 mL glass vials and diluted in a volume of 1.25% (v/v) Agri-Dex® crop oil concentrated to obtain 12× stock solutions. […] Application solutions were prepared by adding an appropriate amount of each stock solution (e.g., 1 mL) and diluted to the appropriate final concentrations with the addition of 10 mL of an aqueous mixture of 1.25% (v/v) crop oil concentrate so that the final spray solutions contained 1.25+/−0.05% (v/v) crop oil concentrate.
All stock solutions and applications solutions were visually inspected for compound compatibility prior to application. Spray solutions were applied to the plant material with an overhead Mandel track sprayer equipped with a 8002E nozzles calibrated to deliver 187 L/ha over an application area of 0.503 m^2 at a spray height of 18 to 20 inches (46 to 50 cm) above average plant canopy height. Control plants were sprayed in the same manner with the solvent blank.
The treated plants and control plants were placed in a greenhouse as described above and watered by sub-irrigation to prevent wash-off of the test compounds. After approximately 3 weeks, the condition of the test plants as compared with that of the untreated plants was determined visually and scored on a scale of 0 to 100 percent where 0 corresponds to no injury or growth inhibition and 100 corresponds to complete kill. […]

Row | Structure (SMILES) | Visual Weed Control (%) - 21 DAA SCPJU Obs ([1]; 2.19 gae/ha) [%] | Visual Weed Control (%) - 20 DAA BRAPP Obs ([2]; 4.38 gae/ha) [%] | Visual Weed Control (%) - 20 DAA BRAPP Obs ([2]; 8 gae/ha) [%] | Visual Weed Control (%) - 20 DAA BRAPP Obs ([2]; 8.75 gae/ha) [%] | Visual Weed Control (%) - 20 DAA BRAPP Obs ([2]; 16 gae/ha) [%] | Visual Weed Control (%) - 20 DAA BRAPP Obs ([2]; 32 gae/ha) [%] | Visual Weed Control (%) - 21 DAA SCPJU Obs ([1]; 22.5 gai/ha) [%] | Visual Weed Control (%) - 21 DAA SCPJU Obs ([1]; 45 gai/ha) [%]
1 | COc1c(Cl)ccc(-c2nc(C(=O)OCc3ccccc3)c(Cl)c(N)c2F)c1F [Compound A Benzyl Ester, benzyl ester of 4-amino-3-chloro-5-fluoro-6-(4-chloro-2-fluoro-3-methoxy-phenyl)pyridine-2-carboxylic acid] | 77 | 50 | 70 | 70 | 75 | 90 |  | 
2 | CCCCOC(=O)[C@@H](C)Oc1ccc(Oc2ccc(C#N)cc2F)cc1 [Cyhalofop-butyl, butyl(2R)-2-[4-(4-cyano-2-fluorophenoxy)phenoxy]propanoate, reference compound] |  |  |  |  |  |  | 0 | 0
